Experimental data: PubChem BioAssay AID1391 (Sanford-Burnham Center for Chemical Genomics, 2008)

Test system: CSM14.1 cells, thapsigargin-induced p-p38/p38 MSD ELISA
Assay: inhibition of thapsigargin-induced p38 phosphorylation, dose response, mechanism study for ER stress apoptosis inhibitor project, MSD ELISA, CSM14.1 cells (AID 1391)
Details: at 10 µM (top of the series)

| SMILES | p-p38/p38 ratio, lower = inhibition |
| --- | --- |
| CC1(C)CC(=O)C2=C(C1)Nc1ccccc1NC2c1ccc(-c2ccccc2)cc1 (configuration not stated) | 1.47 |
| COc1ccc(C2CC(=O)C3=C(C2)Nc2ccccc2NC3c2cccc(Oc3ccccc3)c2)cc1OC (configuration not stated) | 1.86 |
